Results: patent publication US10907199B2, “Double-strand DNA break quantification method” (SOCIETE DE COMMERCIALISATION DES PRODUITS DE LA RECHERCHE …, priority 2017, dated 2021)

Molecular target: T1, terminal deoxynucleotidyl transferase (TdT) (Bos taurus, UniProt P06526)
T1 construct: purchased Roche (Sigma-Aldrich Canada) 3333574001
Experiment: TdT inhibition by ATP: tailing reaction of linearized pBlueScript plasmid with TdT and dATP, read by DNA size shift on agarose gel
Type: biochemical
Procedure: Linearized pBlueScript plasmid was used in a tailing reaction using TdT and dATP following manufacturer's instruction. Different concentrations of ATP were added in the reaction and the tailing efficiency was observed after agarose gel electrophoresis by a shift in the DNA size. It was sought to determine conditions for efficient repair of DNA nicks and gaps prior to the TdT end labeling. A proper combination of T4 DNA ligase and T4 DNA polymerase was used to seal nicks and fill the gaps respectively and termed «Nick and Gap Repair» (NGR). […] Limiting the purification steps is crucial to improve DNA recovery throughout the process. It was observed that TdT is inhibited by the high concentration of ATP recommended for DNA ligations (1 mM, FIG. 6). However, it was determined that efficient DNA nick sealing is still observed by decreasing the ATP concentration to 1 μM. […] From these simple modifications, both repair and labeling reactions can be performed without the need for DNA purification between these steps. It is worth noting that although the use of «Tap» DNA ligase would have the advantage of preventing DSB ligations, T4 DNA ligase was however strongly preferred because of its compatibility with the gap-filling step and its greater nick sealing activity (not shown). The efficiency of the repair step for the specific capture of DSBs within genomic DNA was established using HeLa-I-SceI DNA pre-digested with the nicking endonuclease Nt.BbvCI as this enzyme creates a single nick within a 7 nucleotide recognition sequence. A single Nt.BbvCI recognition sequence is present within the I-SceI insert and can be detected by DBrIC using a primer pair adjacent to the nick (FIG. 5C).

T1 sequence (P06526 139-509 limits assumed): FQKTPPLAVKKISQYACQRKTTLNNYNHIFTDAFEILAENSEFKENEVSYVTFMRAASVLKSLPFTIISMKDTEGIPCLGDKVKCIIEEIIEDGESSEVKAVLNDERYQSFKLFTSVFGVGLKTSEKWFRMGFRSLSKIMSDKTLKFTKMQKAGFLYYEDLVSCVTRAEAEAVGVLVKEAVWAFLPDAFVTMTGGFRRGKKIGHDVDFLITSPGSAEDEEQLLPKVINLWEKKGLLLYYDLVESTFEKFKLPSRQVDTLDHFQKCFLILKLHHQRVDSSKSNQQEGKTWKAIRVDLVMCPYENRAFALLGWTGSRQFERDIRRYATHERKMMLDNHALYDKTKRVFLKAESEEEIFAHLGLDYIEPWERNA

subsequent TdT reaction in presence of ATP (1 μM ATP): proceed normally | enzymatic activity of the TdT in presence of ATP (10 μM ATP (usual concentration for DNA ligase and DNA polymerase), FIG. 6): inhibit | TdT enzymatic activity (tailing efficiency) in presence of ATP (1 mM ATP (high concentration recommended for DNA ligations), FIG. 6): inhibited
SMILES: Nc1ncnc2c1ncn2[C@@H]1O[C@H](COP(=O)(O)OP(=O)(O)OP(=O)(O)O)[C@@H](O)[C@H]1O [ATP, adenosine triphosphate]
